The values that follow come from patent publication US8138175B2, “Heterocyclyl compounds” (Hoffmann-La Roche Inc., priority 2008, dated 2012).

For this assay, the target named is T1, human chemokine receptor 2 isoform B (Homo sapiens, UniProt P41597).
T1 construct: host or cells: CHOK1-CCR2B-A5 (CHO-K1) cells
T1 sequence (P41597 1-360 isoform P41597-2): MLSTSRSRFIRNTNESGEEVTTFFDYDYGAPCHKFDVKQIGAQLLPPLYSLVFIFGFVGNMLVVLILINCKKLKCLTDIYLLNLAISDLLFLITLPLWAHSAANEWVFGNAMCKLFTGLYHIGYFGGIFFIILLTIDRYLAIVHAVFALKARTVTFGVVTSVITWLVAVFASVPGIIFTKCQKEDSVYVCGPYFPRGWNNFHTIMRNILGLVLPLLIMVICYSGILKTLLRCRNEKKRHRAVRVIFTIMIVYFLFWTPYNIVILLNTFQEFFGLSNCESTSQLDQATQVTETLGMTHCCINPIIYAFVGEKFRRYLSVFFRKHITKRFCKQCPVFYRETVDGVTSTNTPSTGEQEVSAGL
The assay is described as follows: Calcium mobilization assay. In kind it is cell-based. The conditions noted are these: Ca mobilization assay for CCR2; CHOK1-CCR2B-A5 cells; antagonist activity against 20 nM MCP-1; FLIPR, Fluo-4.

For the molecule `C[C@H]1C(=O)N(CCCN2CCCCC2)CCN1c1cccc(OC(F)(F)F)c1` [Example 42, (S)-3-Methyl-1-(3-piperidin-1-yl-propyl)-4-(3-trifluoromethoxy-phenyl)-piperazin-2-one], the IC50 was 180 nM.
To `COC(=O)C(CCN1CCC2(CC2)[C@H](O)C1)N1CCN(c2cccc(C(F)(F)F)c2)C(C)C1=O` (stereo partly drawn) [Example 54, 4-((S)-4-Hydroxy-6-aza-spiro[2.5]oct-6-yl)-2-[3-methyl-2-oxo-4-(3-trifluoromethyl-phenyl)-piperazin-1-yl]-butyric acid methyl ester] belongs 10 nM; to `CC1C(=O)N(CCCN2CCC3(CC3)[C@H](O)C2)CCN1c1cccc(-c2ccccc2)c1` (stereo partly drawn) [Example 90, 4-Biphenyl-3-yl-1-[3-((S)-4-hydroxy-6-aza-spiro[2.5]oct-6-yl)-propyl]-3-methyl-piperazin-2-one], 508 nM; to `C[C@H]1C(=O)N(CCCN2CCC3(CC3)[C@H](O)C2)CCN1c1cccc(OC(F)(F)F)c1` [Example 45, (S)-1-[3-((S)-4-Hydroxy-6-aza-spiro[2.5]oct-6-yl)-propyl]-3-methyl-4-(3-trifluoromethoxy-phenyl)-piperazin-2-one], 10 nM.
As for `C[C@H]1C(=O)N(CCCN2CCCCC2)CCN1c1cccc(C(F)(F)F)c1` [Example 52, (S)-3-Methyl-1-(3-piperidin-1-yl-propyl)-4-(3-trifluoromethyl-phenyl)-piperazin-2-one], the figure is 130 nM; as for `C[C@H]1C(=O)N(CCCN2CCC3(CC3)[C@H](O)C2)CCN1c1ccc(F)c(Cl)c1` [Example 79, (S)-4-(3-Chloro-4-fluoro-phenyl)-1-[3-((S)-4-hydroxy-6-aza-spiro[2.5]oct-6-yl)-propyl]-3-methyl-piperazin-2-one], 29 nM.
To `CN(C)C(=O)[C@H](CCN1CCC2(CC2)[C@H](O)C1)N1CCN(c2ccc(Cl)c(Cl)c2)CCC1=O` [Example 59, (S)-2-[4-(3,4-Dichloro-phenyl)-7-oxo-[1,4]diazepan-1-yl]-4-((S)-4-hydroxy-6-aza-spiro[2.5]oct-6-yl)-N,N-dimethyl-butyramide] belongs 80 nM.
`C[C@@H]1C(=O)N(CCCN2CCC3(CC3)[C@H](O)C2)CCN1c1ccc(C(F)(F)F)c(F)c1` [Example 103, (R)-4-(3-fluoro-4-trifluoromethyl-phenyl)-1-[3-((S)-4-hydroxy-6-aza-spiro[2.5]oct-6-yl)-propyl]-3-methyl-piperazin-2-one]: the IC50 came to 92 nM.
As for `CC[C@@H]1C(=O)N(CCCN2CCC3(CC3)[C@H](O)C2)CCN1c1ccc(Cl)c(Cl)c1` [Example 88, (R)-4-(3,4-dichloro-phenyl)-3-ethyl-1-[3-((S)-4-hydroxy-6-aza-spiro[2.5]oct-6-yl)-propyl]-piperazin-2-one], the figure is 325 nM; as for `COC(=O)[C@@H](CCN1CCC2(CC2)[C@H](O)C1)N1CCN(c2cccc(C(F)(F)F)c2)CCC1=O` [Example 8, (R)-4-((S)-4-Hydroxy-6-aza-spiro[2.5]oct-6-yl)-2-[7-oxo-4-(3-trifluoromethyl-phenyl)-[1,4]diazepan-1-yl]-butyric acid methyl ester], 600 nM.
`CC1C(=O)N(CCCN2CCCCC2)CCN1c1ccc(Cl)c(C(F)(F)F)c1` (stereo not drawn) [Example 70, 4-(4-Chloro-3-trifluoromethyl-phenyl)-3-methyl-1-(3-piperidin-1-yl-propyl)-piperazin-2-one]: the IC50 was 579 nM.
Take `CN(C(=O)[C@H](CCN1CCC2(CC2)[C@H](O)C1)N1CCN(c2ccc(Cl)c(Cl)c2)CCC1=O)C1CC1` [Example 62, (S)—N-Cyclopropyl-2-[4-(3,4-dichloro-phenyl)-7-oxo-[1,4]diazepan-1-yl]-4-((S)-4-hydroxy-6-aza-spiro[2.5]oct-6-yl)-N-methyl-butyramide]: the IC50 is 330 nM.

The IC50 is the concentration needed to halve the response being measured.
